Assay results reported in paper PMC2763345 (PLoS Pathogens, 2009).
≈ marks a conversion by molar mass, not a printed value. Like-named read-outs stand apart in the source and are kept apart here.

What was measured:
[1] = tested on: M. tuberculosis H37Rv-GFP; assay: microbe, parasite or virus in culture; type: cell-based, Mycobacterium tuberculosis; conditions: for MIC: Mycobacterium tuberculosis, H37RV
[2] = tested on: Raw264.7 macrophages
[3] = tested on: M. tuberculosis H37Rv-GFP in Raw264.7 macrophages; assay: microbe, parasite or virus in culture; type: cell-based, Mycobacterium tuberculosis; conditions: for MIC: Mycobacterium tuberculosis, H37RV
[4] = tested on: Candida albicans, C. glabrata, C. parapsilosis; type: cell-based, Fungi
[5] = tested on: C. jeikeium; type: cell-based, Corynebacterium jeikeium
[6] = tested on: M. tuberculosis H37Ra; type: cell-based
[7] = tested on: M. tuberculosis H37Rv; type: cell-based
[8] = tested on: C. striatum; type: cell-based, Corynebacterium striatum
[9] = tested on: BCG Wild Type; assay: microbe, parasite or virus in culture; type: cell-based, M. bovis BCG
[10] = tested on: Acinetobacter baumannii, Escherichia coli, Enterobacter cloacae, E. aerogenes, Klebsiella oxytoca, Pseudomonas aeruginosa, Salmonella enteridis, Vibrio mimicus; type: cell-based, Gram-negative bacteria
[11] = in vitro; conditions: C57BL/6, mouse
[12] = tested on: M. tuberculosis H37Rv; type: cell-based; remark: listed apart in the source
[13] = tested on: M. smegmatis mc2 155; type: cell-based
[14] = tested on: Staphylococcus aureus, S. epidermis, S. capitis, S. xylosus, Micrococcus luteus, Listeria innocua, Lactobacillus gallinarum, group G Streptococcus …; type: cell-based, Gram-positive bacteria
[15] = tested on: M. smegmatis mc2 155 Wild Type; assay: microbe, parasite or virus in culture; type: cell-based
[16] = tested on: BCG Pasteur-Tokyo; type: cell-based, M. bovis BCG
[17] = tested on: M. tuberculosis H37Ra; type: cell-based; remark: listed apart in the source
[18] = tested on: M. tuberculosis H37Rv-GFP in mouse bone marrow-derived macrophages; type: cell-based, Mycobacterium tuberculosis
[19] = tested on: M. tuberculosis H37Rv-GFP in human primary macrophages; type: cell-based, Mycobacterium tuberculosis
[20] = read-out: In vitro broth growth MIC (µM)
[21] = read-out: In vitro broth growth MIC (µg/mL)
[22] = 120 h, read-out: Intracellular macrophage growth MIC (µM)
[23] = 120 h, read-out: Intracellular macrophage growth MIC (µg/mL)
[24] = Mycobacterium tuberculosis variant bovis BCG, BCG
[25] = Mycolicibacterium smegmatis, MC2155

Structure (SMILES)	MIC [1, 20]	MIC [1, 21]	Intracellular macrophage growth Cell toxicity ([2]; mouse)	MIC [3, 22]	MIC [3, 23]	MIC ([1]; read-out: MIC Extracellular)	MIC ([3]; read-out: MIC Intracellular)	other results
NC(=O)c1c(NC(=O)C2CC2)sc2c1CCCC2 [AX20017]	–	–	–	–	–	–	–	In vitro broth growth MIC (µM) [1]: >20 µM; In vitro broth growth MIC (µg/mL) [1]: >5 µg/mL; Intracellular macrophage growth Cell toxicity [2]: >20 µM; Intracellular macrophage growth MIC (µM) [3]: >20 µM; Intracellular macrophage growth MIC (µg/mL) [3]: >5 µg/mL
NCC[C@H](O)C(=O)N[C@@H]1C[C@H](N)[C@@H](O[C@H]2O[C@H](CN)[C@@H](O)[C@H](O)[C@H]2O)[C@H](O)[C@H]1O[C@H]1O[C@H](CO)[C@@H](O)[C@H](N)[C@H]1O [Amikacin]	0.07 µM	0.04 µg/mL	>150 µM	> 150 µM	> 20 µg/mL	–	–	–
O=C(NCCOCc1cccc(Cl)c1)c1cc([N+](=O)[O-])cc([N+](=O)[O-])c1 [Compound 1]	–	–	–	–	–	0.2 µM	1 µM	–
Nc1cc(C(=O)NCCOCc2cccc(Cl)c2)cc([N+](=O)[O-])c1 [Compound 2]	–	–	–	–	–	> 20 µM	> 20 µM	–
O=C(NCCOCc1cccc(Cl)c1)c1cc(NO)cc([N+](=O)[O-])c1 [Compound 3]	–	–	–	–	–	> 20 µM	> 20 µM	–
O=C(NCCOCc1cccc(Cl)c1)c1cccc([N+](=O)[O-])c1 [Compound 4]	–	–	–	–	–	> 20 µM	> 20 µM	–
O=C(NCCOCc1ccccc1F)c1cc([N+](=O)[O-])cc([N+](=O)[O-])c1 [Compound 5]	–	–	–	–	–	0.08 µM	0.2 µM	–
O=C(NCCOCc1cccc(C(F)(F)F)c1)c1cc([N+](=O)[O-])cc([N+](=O)[O-])c1 [Compound 6]	–	–	–	–	–	0.2 µM	0.2 µM	–
O=C(NCCOCc1ccccc1)c1cc([N+](=O)[O-])cc([N+](=O)[O-])c1 [Compound 7, N-(2-(benzyloxy)ethyl)-3,5-dinitrobenzamide]	–	–	–	–	–	0.2 µM	0.2 µM	Range of MICs for multiple strains [4]: > 250 µM; Range of MICs for multiple strains [5]: 2.7 µM; effect on the synthesis of the arabinan domains of arabinogalactan (AG) and lipoarabinomannan (LAM) [6]: clear-cut effect; effects on the biosynthesis of fatty acids, mycolic acids and/or other lipids [6]: no effects; bactericidal effect on M. tuberculosis [7]: time-dependent; Range of MICs for multiple strains [8]: 27 µM; MIC [9, 24]: 0.25 µg/mL (≈ 0.724 µM); Range of MICs for multiple strains [10]: > 250 µM; IC50 [11]: 50 µM; Range of MICs for multiple strains [12]: 0.2 µM; Range of MICs for multiple strains [13]: 0.4 µM; Range of MICs for multiple strains [14]: > 250 µM; MIC [15, 25]: 0.25 µg/mL (≈ 0.724 µM); Range of MICs for multiple strains [16]: 0.2 to 0.7 µM; Range of MICs for multiple strains [17]: 0.2 µM
COc1ccc(OCCNC(=O)c2cc([N+](=O)[O-])cc([N+](=O)[O-])c2)cc1 [Compound 8, N-(2-(4-methoxyphenoxy)ethyl)-3,5-dinitrobenzamide]	–	–	–	–	–	0.2 µM	0.2 µM	Range of MICs for multiple strains [4]: > 250 µM; decrease in the number of CFUs [18]: More than a ten-fold decrease; Range of MICs for multiple strains [5]: 2.7 µM; effect on the synthesis of the arabinan domains of arabinogalactan (AG) and lipoarabinomannan (LAM) [6]: clear-cut effect; effects on the biosynthesis of fatty acids, mycolic acids and/or other lipids [6]: no effects; bactericidal effect on M. tuberculosis [7]: time-dependent; Range of MICs for multiple strains [8]: 27 µM; MIC [9, 24]: 0.075 µg/mL (≈ 0.208 µM); Range of MICs for multiple strains [10]: > 250 µM; decrease in the number of CFUs [19]: More than a ten-fold decrease; IC50 [11]: 50 µM; Range of MICs for multiple strains [12]: 0.2 µM; Range of MICs for multiple strains [13]: 0.4 µM; Range of MICs for multiple strains [14]: > 250 µM; MIC [15, 25]: 0.15 µg/mL (≈ 0.415 µM); Range of MICs for multiple strains [16]: 0.2 µM; Range of MICs for multiple strains [17]: 0.2 µM
O=C(NCCOc1ccccc1F)c1cc([N+](=O)[O-])cc([N+](=O)[O-])c1 [Compound 9]	–	–	–	–	–	0.2 µM	0.7 µM	–
COc1ccc(O[C@H]2CCN(C(=O)c3cc([N+](=O)[O-])cc([N+](=O)[O-])c3)C2)cc1 [Compound 10-(S)]	–	–	–	–	–	0.08 µM	20 µM	–
COC(=O)c1ccc(O[C@H]2CCN(C(=O)c3cc([N+](=O)[O-])cc([N+](=O)[O-])c3)C2)cc1 [Compound 11-(S)]	–	–	–	–	–	0.08 µM	> 20 µM	–
COc1ccc(O[C@H]2CCCN(C(=O)c3cc([N+](=O)[O-])cc([N+](=O)[O-])c3)C2)cc1 [Compound 12-(S)]	–	–	–	–	–	6 µM	20 µM	–
CC[C@@H](CO)NCCN[C@@H](CC)CO [Ethambutol]	4.9 µM	1 µg/mL	>20 µM	4.9 µM	1 µg/mL	–	–	differences in MIC between the two assays (broth and intracellular) [3]: No major differences
CCc1cc(C(N)=S)ccn1 [Ethionamide]	6 µM	1 µg/mL	120 µM	6 µM	1 µg/mL	–	–	differences in MIC between the two assays (broth and intracellular) [3]: No major differences
CC(=O)O[C@H]1C[C@@]2(C)[C@@H](C[C@@H](O)[C@H]3[C@@]4(C)CC[C@@H](O)[C@@H](C)[C@@H]4CC[C@@]32C)/C1=C(\CCC=C(C)C)C(=O)O [Fusidic Acid]	1 µM	0.5 µg/mL	>20 µM	20 µM	10 µg/mL	–	–	–
NNC(=O)c1ccncc1 [Isoniazid]	1.2 µM	0.16 µg/mL	>150 µM	1.2 µM	0.16 µg/mL	–	–	differences in MIC between the two assays (broth and intracellular) [3]: No major differences
C[C@H]1COc2c(N3CCN(C)CC3)c(F)cc3c(=O)c(C(=O)O)cn1c23 [Levofloxacin]	2.5 µM	0.9 µg/mL	>20 µM	> 20 µM	> 10 µg/mL	–	–	–
O=[N+]([O-])c1cn2c(n1)OC[C@@H](OCc1ccc(OC(F)(F)F)cc1)C2 [PA-824]	0.22 µM	0.08 µg/mL	>20 µM	0.22 µM	0.08 µg/mL	–	–	differences in MIC between the two assays (broth and intracellular) [3]: No major differences
NC(=O)c1cnccn1 [Pyrazinamide]	> 150 µM	> 20 µg/mL	>150 µM	> 150 µM	> 20 µg/mL	–	–	–
CO[C@H]1/C=C/O[C@@]2(C)Oc3c(C)c(O)c4c(c3C2=O)C2=NC3(CCN(CC(C)C)CC3)NC2=C(NC(=O)/C(C)=C\C=C\[C@H](C)[C@H](O)[C@@H](C)[C@@H](O)[C@@H](C)[C@H](OC(C)=O)[C@@H]1C)C4=O [Rifabutin]	0.01 µM	0.01 µg/mL	>20 µM	0.11 µM	0.1 µg/mL	–	–	–
CO[C@H]1/C=C/O[C@@]2(C)Oc3c(C)c(O)c4c(O)c(c(/C=N/N5CCN(C)CC5)c(O)c4c3C2=O)NC(=O)/C(C)=C\C=C\[C@H](C)[C@H](O)[C@@H](C)[C@@H](O)[C@@H](C)[C@H](OC(C)=O)[C@@H]1C [Rifampin]	0.01 µM	0.01 µg/mL	24 µM	2.9 µM	2.4 µg/mL	–	–	MIC [9]: 0.31 µg/mL (≈ 0.377 µM); MIC [15]: 0.31 µg/mL (≈ 0.377 µM)
[H]/N=C(/N)N[C@H]1[C@H](O)[C@@H](O)[C@H](O[C@@H]2O[C@@H](C)[C@](O)(C=O)[C@H]2O[C@@H]2O[C@@H](CO)[C@H](O)[C@@H](O)[C@@H]2NC)[C@@H](N/C(N)=N\[H])[C@@H]1O [Streptomycin]	1.5 µM	0.9 µg/mL	>35 µM	> 35 µM	> 20 µg/mL	–	–	–
